Article PMC7906020, “Trp-Containing Antibacterial Peptides Impair Quorum Sensing and Biofilm Development in Multidrug-Resistant Pseudomonas aeruginosa and Exhibit Synergistic Effects With Antibiotics” (Frontiers in Microbiology, 2021)

Experiments:
[1] = system: MRPA0108 swarming motility; assay: Swarming motility assay; format: cell-based, Pseudomonas aeruginosa; settings: erythromycin positive control, concentration not given; 24 h, 37°C; vs control
Procedure: The swarming motility of MRPA0108 was assessed as described by [O’May and Tufenkji (2011)], with slight modifications. Briefly, swarming agar medium (1% tryptone, 0.5% NaCl, and 0.5% agar) was prepared in the presence or absence of peptide at a final concentration of 1/4 × MIC. MRPA0108 cells from an overnight culture grown on LB agar plates were placed directly on the agar surface (center) with a sterile toothpick so that the motility within the semisolid agar could be evaluated. After 24 h of incubation at 37°C, the diameters of swarming motility were observed and measured. LB liquid medium and erythromycin were used as negative control and positive controls, respectively. All experiments were repeated three times.

[2] = system: MRPA0108 biofilms; assay: Confocal laser scanning microscopy of biofilms (LIVE/DEAD staining); format: cell-based, Pseudomonas aeruginosa; settings: 24 h; for percentage of dead/live cells in biofilm: control 8.7%
Procedure: Biofilms of MRPA0108 were visualized by confocal microscopy. Mid-log growth-phase bacteria were diluted to 1 × 10^7 CFU/ml. […] LB liquid medium and erythromycin were used as negative and positive controls, respectively. After incubation, the supernatant was removed, and the slides were washed and stained in a dark environment for 30 min using a LIVE/DEAD BacLight^TM Bacterial Viability Kit (Invitrogen, Life Technologies, Shanghai, China). The slides were washed three times and imaged with a confocal laser scanning microscope (LSM 710, Carl Zeiss, Germany) with excitation/emission wavelengths of 480/500 and 490/635 nm for SYTO9 and propidium iodide (PI), respectively. SYTO9 was used to indicate live bacteria, and PI was used to mark dead bacteria.

[3] = system: pyocyanin production in MRPA0108; assay: Pyocyanin production assay; format: cell-based, Pseudomonas aeruginosa; settings: peptide at 1/4 × MIC, 24 h; OD 520 nm; vs untreated control; triplicate
Procedure: The culture supernatant was obtained after centrifugation at 12,000×g for 10 min. (1) LasB elastase activity was measured using elastin-Congo red (ECR) as the substrate, as described by [Pattnaik et al. (2018)]. Briefly, 100 μl of the culture supernatant was added to 900 μl of ECR buffer (100 mM Tris-HCl, 1 mM CaCl2, pH 7.5) containing 10 mg of ECR and then incubated with shaking at 37°C for 18 h. Then, 100 μl of 0.12 M EDTA was added to stop the reaction. The insoluble ECR was removed by centrifugation, and the supernatant absorbance was measured at 495 nm. The optical density (OD) 495 nm/OD 600 nm represents the elastase activity. (2) LasA protease activity was measured as follows ([Pattnaik et al., 2018]): first, the culture supernatant was filtered to remove the bacterial cells, and then 150 μl of sterile-filtered supernatant was added to 2% azocasein (prepared in 50 mM Tris-HCl) and incubated for 4 h at 37°C. […] After centrifugation at 10,000 rpm for 10 min, 1 M NaOH was added to the supernatant, and the relative protease activity was measured at OD 440 nm. (3) The pyocyanin assay was based on the absorbance of excreted pyocyanin at 520 nm in an acidic solution ([Kong et al., 2005]). […] The OD 520 nm was measured to evaluate the change in pyocyanin content. […] The absorbance was measured at 420 nm. (5) The level of C4-HSL was quantified by GC-MS as previously described ([Guo et al., 2012]).

[4] = cited from earlier work
Excerpt: Supplement Table_1.docx, table 1: Table S1 Biological characteristics and antibacterial activities of the Trp-containing antimicrobial peptides (32) | column: Hemolysis (μM)

[5] = system: MRPA0108 strain; settings: previous study, ref Han et al., 2020; cited from earlier work
Excerpt: Supplement Table_1.docx, table 1: Table S1 Biological characteristics and antibacterial activities of the Trp-containing antimicrobial peptides (32) | column: MIC(μM)

[6] = system: rhamnolipid production in MRPA0108; assay: Rhamnolipid production, orcinol method; format: cell-based, Pseudomonas aeruginosa; settings: peptide at 1/4 × MIC, 24 h, absorbance 420 nm, vs control, triplicate
Procedure: (§1) The culture supernatant was obtained after centrifugation at 12,000×g for 10 min. (1) LasB elastase activity was measured using elastin-Congo red (ECR) as the substrate, as described by [Pattnaik et al. (2018)]. Briefly, 100 μl of the culture supernatant was added to 900 μl of ECR buffer (100 mM Tris-HCl, 1 mM CaCl2, pH 7.5) containing 10 mg of ECR and then incubated with shaking at 37°C for 18 h. Then, 100 μl of 0.12 M EDTA was added to stop the reaction. The insoluble ECR was removed by centrifugation, and the supernatant absorbance was measured at 495 nm. The optical density (OD) 495 nm/OD 600 nm represents the elastase activity. (2) LasA protease activity was measured as follows ([Pattnaik et al., 2018]): first, the culture supernatant was filtered to remove the bacterial cells, and then 150 μl of sterile-filtered supernatant was added to 2% azocasein (prepared in 50 mM Tris-HCl) and incubated for 4 h at 37°C. Trichloroacetic acid (TCA, 10%) was added to precipitate the undigested substrate. After centrifugation at 10,000 rpm for 10 min, 1 M NaOH was added to the supernatant, and the relative protease activity was measured at OD 440 nm. (3) The pyocyanin assay was based on the absorbance of excreted pyocyanin at 520 nm in an acidic solution ([Kong et al., 2005]). Three milliliters of culture supernatant were mixed with 2 ml of chloroform for 20 min, and then the pyocyanin from the chloroform phase was reextracted using 0.2 M HCl for 15 min to obtain a pink-colored pyocyanin solution. The OD 520 nm was measured to evaluate the change in pyocyanin content. (4) Rhamnolipid detection was carried out as previously described ([Wittgens et al., 2011]). Briefly, 500 μl of culture supernatant was mixed with 500 μl of ethyl acetate and vortexed vigorously for 15 s to extract rhamnolipid. After centrifugation at 10,000×g for 5 min at 4°C, the organic phase containing rhamnolipids was obtained and evaporated at room temperature overnight. The rhamnolipid extract dissolved in ultrapure water was mixed with orcinol reagent (0.19% orcinol in 53% H2SO4) and incubated at 80°C for 30 min. The absorbance was measured at 420 nm. (5) The level of C4-HSL was quantified by GC-MS as previously described ([Guo et al., 2012]).

[7] = system: MRPA0108; assay: Checkerboard assay (FICI) of peptides with antibiotics; format: cell-based, Pseudomonas aeruginosa; settings: MRPA0108, 24 h 37°C, median of at least three experiments, synergy ≤ 0.5, additive 0.5-1, indifference 1-2
Procedure: The synergistic effect of peptides and antibiotics was evaluated using the checkerboard method, in which the fractional inhibitory concentration index (FICI) was used to analyze the type of interaction between compounds ([Berditsch et al., 2015]). A 100 μl inoculum of 10^5 CFU/ml planktonic bacteria was added to the respective wells of 96-well microtiter plates, and then serial dilutions of peptide and antibiotic at 100 μl volumes were added to each well and incubated at 37°C for 24 h. The OD 600 nm value was measured with a microplate plate reader (Varioskan Flash Microplate Reader, Thermo Fisher Scientific Co., Beijing) as an indicator of growth inhibition. The resulting checkerboard contained each combination of peptide and antibiotic in 9 doubly increasing concentrations, with wells containing the highest concentration of each antibiotic at opposite corners. The concentrations tested for every combination of peptide-antibiotic were their respective MICs. MH medium and the peptide/antibiotic combination served as negative and positive controls, respectively. The FICI is calculated as FICa plus FICb, where FICa is the MIC of the peptide in the presence of antibiotics/the MIC of the peptide alone, and FICb is the MIC of the antibiotic in the presence of peptide/the MIC of the antibiotic alone. Drug interactions were defined as follows: synergy, FICI ≤ 0.5; additive effect, 0.5 < FICI ≤ 1; and indifference, 1 < FICI ≤ 2 ([Hollander et al., 1998]; [Yoon et al., 2004]). The results were recorded in at least three independent experiments, and the median FICI values were used in the analysis.

[8] = system: LasB elastase of MRPA0108; assay: LasB elastase activity, elastin-Congo red method; format: cell-based, Pseudomonas aeruginosa; settings: peptide at 1/4 × MIC, 24 h, 37°C; ECR substrate, OD495/OD600; vs control; triplicate
Procedure: as §1, with “The rhamnolipid extract dissolved in ultrapure water was mixed with orcinol reagent (0.19% orcinol in 53% H2SO4) and incubated at 80°C for 30 min.” left out

Compound	reduction in swarming motility [1]	percentage of dead/live cells in biofilm ([2]; erythromycin positive control, concentration not given)	reduction of pyocyanin production [3]	Hemolysis [4]	average biofilm thickness ([2]; after treatment with low concentrations of peptide (1 × MIC or 2 × MIC), 37°C, control biofilm 6 μm)	percentage of dead/live cells in biofilm ([2]; peptide at 1 × MIC, SYTO9/PI)	percentage of dead/live cells in biofilm ([2]; peptide at 2 × MIC, SYTO9/PI)	MIC [5]	inhibition of rhamnolipid production [6]	FICI in combination with ceftazidime [7]	FICI in combination with levofloxacin [7]	FICI in combination with piperacillin [7]	decrease of LasB elastase activity [8]
CC[C@H]1OC(=O)[C@H](C)[C@@H](O[C@H]2C[C@@](C)(OC)[C@@H](O)[C@H](C)O2)[C@H](C)[C@@H](O[C@@H]2O[C@H](C)C[C@H](N(C)C)[C@H]2O)[C@](C)(O)C[C@@H](C)C(=O)[C@H](C)[C@@H](O)[C@]1(C)O [erythromycin, reference compound]	85%	68.9%	–	–	–	–	–	–	–	–	–	–	–
IKKIWSKIKKLLK-NH2 [L5W]	–	–	69.4%	> 500 µM	1.5–2.5 μm	21.4%	32.5%	12.5 µM	40.7%	0.23	0.62	0.37	24.1%
